From publication PMC8387799, “Inhibition Effect of Extract of Psychotria viridiflora Stem on α-Amylase and α-Glucosidase and Its Application in Lowering the Digestibility of Noodles” (Frontiers in Nutrition, 2021)
Values after ≈ are worked out from the molar mass of the structure shown.

Tested on: T1, rat intestinal α-glucosidase
T1 construct: gene Mgam; native; supernatant of PBS extract of commercial rat intestinal powder (crude mixture of brush-border glucosidases)
Test: turbidity ([…] nm) of corn starch hydrolysis, AUC, microplate
Type: biochemical
Details: corn starch substrate; PBS, 37 °C preincubation 15 min

C[C@H]1O[C@H](O[C@H]2[C@H](O)[C@@H](O)[C@@H](O[C@H]3[C@H](O)[C@@H](O)C(O)O[C@@H]3CO)O[C@@H]2CO)[C@H](O)[C@@H](O)[C@@H]1N[C@H]1C=C(CO)[C@@H](O)[C@H](O)[C@H]1O (stereo partly shown) [acarbose]
IC50: 2.27 ± 1.35 µg/mL (≈ 3.52 µM)
